Measured values reported in ChEMBL document CHEMBL2311476, “Inhibitory effects of metachromins L-Q and its related analogs against receptor tyrosine kinases EGFR and HER2” (Bioorg Med Chem Lett, 2013).
≈ marks a conversion by molar mass, not a printed value.

Legend:
[1] = system: KB; assay: Cytotoxicity against human KB cells after 48 hrs; type: cell-based
[2] = molecular target: Receptor tyrosine-protein kinase erbB-2 (Homo sapiens, UniProt P04626); assay: Inhibition of HER2 (unknown origin) by Z-LYTE assay
[3] = molecular target: Epidermal growth factor receptor (Homo sapiens, UniProt P00533); assay: Inhibition of EGFR (unknown origin) by Z-LYTE assay
[4] = system: L1210; assay: Cytotoxicity against mouse L1210 cells after 48 hrs; type: cell-based; conditions: L1210, 48 h

Epidermal growth factor receptor, sequence (P00533 whole entry): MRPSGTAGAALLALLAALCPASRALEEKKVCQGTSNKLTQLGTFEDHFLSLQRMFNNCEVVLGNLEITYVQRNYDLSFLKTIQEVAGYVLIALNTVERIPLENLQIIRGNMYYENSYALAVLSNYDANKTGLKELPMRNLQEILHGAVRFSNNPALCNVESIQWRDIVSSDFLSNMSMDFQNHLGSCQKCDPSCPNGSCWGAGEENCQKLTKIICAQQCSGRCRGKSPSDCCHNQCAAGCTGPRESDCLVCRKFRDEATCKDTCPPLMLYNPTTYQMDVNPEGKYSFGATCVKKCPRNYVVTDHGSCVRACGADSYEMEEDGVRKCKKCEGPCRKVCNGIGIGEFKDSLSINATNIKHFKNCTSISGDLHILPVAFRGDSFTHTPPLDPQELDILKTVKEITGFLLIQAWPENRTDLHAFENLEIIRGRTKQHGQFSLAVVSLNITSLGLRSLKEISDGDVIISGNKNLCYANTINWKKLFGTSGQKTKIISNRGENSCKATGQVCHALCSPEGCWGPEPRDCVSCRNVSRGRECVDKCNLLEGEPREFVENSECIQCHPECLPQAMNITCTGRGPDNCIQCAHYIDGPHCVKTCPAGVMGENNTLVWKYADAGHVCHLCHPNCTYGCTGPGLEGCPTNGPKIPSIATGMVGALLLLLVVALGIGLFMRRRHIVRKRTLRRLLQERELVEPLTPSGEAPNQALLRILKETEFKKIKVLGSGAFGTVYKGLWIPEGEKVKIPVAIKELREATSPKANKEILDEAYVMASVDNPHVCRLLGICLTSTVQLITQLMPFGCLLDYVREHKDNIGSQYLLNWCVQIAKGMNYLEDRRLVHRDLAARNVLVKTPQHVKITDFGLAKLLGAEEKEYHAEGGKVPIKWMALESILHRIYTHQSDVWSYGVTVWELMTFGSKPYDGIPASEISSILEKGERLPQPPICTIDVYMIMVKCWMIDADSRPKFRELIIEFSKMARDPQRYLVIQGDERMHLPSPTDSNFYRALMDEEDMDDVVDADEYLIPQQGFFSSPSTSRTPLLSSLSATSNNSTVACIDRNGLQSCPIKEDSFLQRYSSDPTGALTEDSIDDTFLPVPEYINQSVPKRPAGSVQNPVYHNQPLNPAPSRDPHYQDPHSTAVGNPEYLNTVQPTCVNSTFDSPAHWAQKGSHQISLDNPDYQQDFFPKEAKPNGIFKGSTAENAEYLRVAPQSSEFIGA
Receptor tyrosine-protein kinase erbB-2, sequence (P04626 whole entry): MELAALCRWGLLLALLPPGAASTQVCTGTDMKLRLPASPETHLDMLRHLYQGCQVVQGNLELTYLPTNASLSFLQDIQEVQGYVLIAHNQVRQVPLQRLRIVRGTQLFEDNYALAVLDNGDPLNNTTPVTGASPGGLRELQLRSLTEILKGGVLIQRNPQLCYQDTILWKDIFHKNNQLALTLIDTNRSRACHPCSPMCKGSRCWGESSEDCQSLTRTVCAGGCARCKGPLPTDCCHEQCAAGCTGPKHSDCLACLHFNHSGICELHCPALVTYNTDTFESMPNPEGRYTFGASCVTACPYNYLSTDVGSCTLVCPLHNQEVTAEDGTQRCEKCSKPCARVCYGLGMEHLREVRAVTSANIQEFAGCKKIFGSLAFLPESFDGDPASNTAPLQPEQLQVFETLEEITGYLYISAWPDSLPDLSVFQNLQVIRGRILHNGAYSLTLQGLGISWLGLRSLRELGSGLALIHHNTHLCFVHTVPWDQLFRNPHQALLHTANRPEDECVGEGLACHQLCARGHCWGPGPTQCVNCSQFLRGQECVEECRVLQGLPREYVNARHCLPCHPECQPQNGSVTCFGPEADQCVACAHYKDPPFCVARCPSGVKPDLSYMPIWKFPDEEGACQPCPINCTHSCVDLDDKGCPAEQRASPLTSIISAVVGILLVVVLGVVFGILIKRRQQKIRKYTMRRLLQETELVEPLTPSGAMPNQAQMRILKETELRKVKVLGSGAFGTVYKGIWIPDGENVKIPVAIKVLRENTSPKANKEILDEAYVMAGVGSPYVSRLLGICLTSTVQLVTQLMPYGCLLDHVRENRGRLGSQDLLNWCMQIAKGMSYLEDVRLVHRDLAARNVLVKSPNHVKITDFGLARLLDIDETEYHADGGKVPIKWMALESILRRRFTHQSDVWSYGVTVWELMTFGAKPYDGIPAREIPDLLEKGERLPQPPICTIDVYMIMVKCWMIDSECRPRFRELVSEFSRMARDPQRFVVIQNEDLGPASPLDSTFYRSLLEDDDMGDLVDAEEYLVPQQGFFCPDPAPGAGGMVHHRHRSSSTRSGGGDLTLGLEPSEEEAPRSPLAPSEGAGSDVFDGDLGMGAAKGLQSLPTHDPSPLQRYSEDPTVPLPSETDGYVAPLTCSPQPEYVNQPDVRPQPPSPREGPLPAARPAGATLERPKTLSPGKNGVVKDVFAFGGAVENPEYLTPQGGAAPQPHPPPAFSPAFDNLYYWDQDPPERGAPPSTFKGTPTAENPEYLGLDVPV

## C=C1[C@H](C)CCC[C@]1(C)CC/C(C)=C/CC1=C(O)C(=O)C=C(N[C@@H](C(=O)O)[C@@H](C)O)C1=O
[1]
  IC50: > 10 µg/mL
[2]
  IC50: 180 µM
[3]
  IC50: 211 µM
[4]
  IC50: > 10 µg/mL

## CC1=CCC[C@H]2[C@](C)(CC3=C(O)C(=O)C=C(N[C@@H](CO)C(=O)O)C3=O)[C@@H](C)CC[C@]12C [NAKIJIQUINONE C]
[1]
  IC50: 7.6 µg/mL (≈ 17.6 µM)
[2]
  IC50: 69.5 µM
[3]
  IC50: 290 µM
[4]
  IC50: 3.8 µg/mL (≈ 8.81 µM)

## CC1=CCC[C@](C)(CC/C(C)=C/CC2=C(O)C(=O)C=C(N[C@@H](CO)C(=O)O)C2=O)[C@@H]1C [METACHROMIN Q]
[1]
  IC50: > 10 µg/mL
[2]
  IC50: 51 µM
[3]
  IC50: > 463 µM
[4]
  IC50: > 10 µg/mL

## C=C1[C@H](C)CCC[C@]1(C)CC/C(C)=C/CC1=C(O)C(=O)C=C(N[C@H](C(=O)O)[C@H](C)O)C1=O
[1]
  IC50: > 10 µg/mL
[2]
  IC50: > 449 µM
[3]
  IC50: > 449 µM
[4]
  IC50: > 10 µg/mL

## C=C1[C@H](C)CCC[C@]1(C)CC/C(C)=C/CC1=C(O)C(=O)C=C(NCC(=O)O)C1=O [METACHROMIN L]
[1]
  IC50: 4 µg/mL (≈ 9.96 µM)
[2]
  IC50: 311 µM
[3]
  IC50: 491 µM
[4]
  IC50: 4 µg/mL (≈ 9.96 µM)

## C=C1[C@H](C)CCC[C@]1(C)CC/C(C)=C/CC1=C(O)C(=O)C=C(N[C@H](CO)C(=O)O)C1=O
[1]
  IC50: > 10 µg/mL
[2]
  IC50: > 463 µM
[3]
  IC50: > 463 µM
[4]
  IC50: 2.6 µg/mL (≈ 6.03 µM)

## CC1=CCC[C@](C)(CC/C(C)=C/CC2=C(O)C(=O)C=C(N[C@@H](C(=O)O)[C@@H](C)O)C2=O)[C@@H]1C
[1]
  IC50: > 10 µg/mL
[2]
  IC50: > 449 µM
[3]
  IC50: 269 µM
[4]
  IC50: > 10 µg/mL

## CC1=CCC[C@](C)(CC/C(C)=C/CC2=C(O)C(=O)C=C(N[C@H](C(=O)O)C(C)C)C2=O)[C@@H]1C
[1]
  IC50: > 10 µg/mL
[2]
  IC50: 78.9 µM
[3]
  IC50: 293 µM
[4]
  IC50: 3.4 µg/mL (≈ 7.66 µM)

## C=C1[C@H](C)CCC[C@]1(C)CC/C(C)=C/CC1=C(O)C(=O)C=C(N[C@H](C(=O)O)[C@@H](C)O)C1=O [METACHROMIN N]
[1]
  IC50: > 10 µg/mL
[2]
  IC50: 426 µM
[3]
  IC50: > 449 µM
[4]
  IC50: > 10 µg/mL

## CC1=CCC[C@](C)(CC/C(C)=C/CC2=C(O)C(=O)C=C(NCC(=O)O)C2=O)[C@@H]1C [METACHROMIN M]
[1]
  IC50: 5.4 µg/mL (≈ 13.4 µM)
[2]
  IC50: 197 µM
[3]
  IC50: > 498 µM
[4]
  IC50: 3.5 µg/mL (≈ 8.72 µM)

## C=C1[C@H](C)CCC[C@]1(C)CC/C(C)=C/CC1=C(O)C(=O)C=C(N[C@@H](CO)C(=O)O)C1=O [METACHROMIN P]
[1]
  IC50: > 10 µg/mL
[2]
  IC50: 41.7 µM
[3]
  IC50: > 463 µM
[4]
  IC50: > 10 µg/mL

## C=C1[C@H](C)CCC[C@]1(C)CC/C(C)=C/CC1=C(O)C(=O)C=C(N[C@H](C(=O)O)C(C)C)C1=O
[1]
  IC50: > 10 µg/mL
[2]
  IC50: 104 µM
[3]
  IC50: 435 µM
[4]
  IC50: 4.4 µg/mL (≈ 9.92 µM)

## CC1=CCC[C@](C)(CC/C(C)=C/CC2=C(O)C(=O)C=C(N[C@@H](C(=O)O)[C@H](C)O)C2=O)[C@@H]1C
[1]
  IC50: > 10 µg/mL
[2]
  IC50: 215 µM
[3]
  IC50: > 449 µM
[4]
  IC50: > 10 µg/mL

## CC1=CCC[C@](C)(CC/C(C)=C/CC2=C(O)C(=O)C=C(N[C@H](C(=O)O)[C@@H](C)O)C2=O)[C@@H]1C [METACHROMIN O]
[1]
  IC50: > 10 µg/mL
[2]
  IC50: 60.6 µM
[3]
  IC50: > 449 µM
[4]
  IC50: > 10 µg/mL

## C=C1[C@H](C)CCC[C@]1(C)CC/C(C)=C/CC1=C(O)C(=O)C=C(N[C@@H](C(=O)O)C(C)C)C1=O
[1]
  IC50: 6.2 µg/mL (≈ 14 µM)
[2]
  IC50: 142 µM
[3]
  IC50: 293 µM
[4]
  IC50: 3.4 µg/mL (≈ 7.66 µM)

## CC1=CCC[C@](C)(CC/C(C)=C/CC2=C(O)C(=O)C=C(N[C@H](CO)C(=O)O)C2=O)[C@@H]1C
[1]
  IC50: > 10 µg/mL
[2]
  IC50: > 463 µM
[3]
  IC50: > 463 µM
[4]
  IC50: > 10 µg/mL

## COC1=CC(=O)C(O)=C(C/C=C(\C)CC[C@@]2(C)CCC=C(C)[C@H]2C)C1=O [METACHROMIN C]
[1]
  IC50: > 10 µg/mL
[2]
  IC50: > 558 µM
[3]
  IC50: > 558 µM

## CC1=CCC[C@](C)(CC/C(C)=C/CC2=C(O)C(=O)C=C(N[C@@H](C(=O)O)C(C)C)C2=O)[C@@H]1C
[1]
  IC50: > 10 µg/mL
[2]
  IC50: 83.4 µM
[3]
  IC50: 334 µM
[4]
  IC50: 3 µg/mL (≈ 6.76 µM)

## CC1=CCC[C@](C)(CC/C(C)=C/CC2=C(O)C(=O)C=C(N[C@H](C(=O)O)[C@H](C)O)C2=O)[C@@H]1C
[1]
  IC50: > 10 µg/mL
[2]
  IC50: 89.8 µM
[3]
  IC50: > 449 µM
[4]
  IC50: > 10 µg/mL

## C=C1[C@H](C)CCC[C@]1(C)CC/C(C)=C/CC1=C(O)C(=O)C=C(N[C@@H](C(=O)O)[C@H](C)O)C1=O
[1]
  IC50: > 10 µg/mL
[2]
  IC50: > 449 µM
[3]
  IC50: > 449 µM
[4]
  IC50: 4.6 µg/mL (≈ 10.3 µM)

## C=C1[C@H](C)CCC[C@]1(C)CC/C(C)=C/CC1=C(O)C(=O)C=C(OC)C1=O [METACHROMIN A]
[1]
  IC50: > 10 µg/mL
[2]
  IC50: > 558 µM
[3]
  IC50: > 558 µM
[4]
  IC50: 2.4 µg/mL (≈ 6.69 µM)
